Data: patent publication EP1674467A1, “2,5- and 2,6-disubstituted benzazole derivatives useful as protein kinase inhibitors” (4SC AG, priority 2004, dated 2006)

The compounds below were run against at least one kinase selected from Aurora-A, Aurora-B, EGF-R, ERBB2, PDGFR, IGF1-R, VEGF-R2, VEGF-R3, EPHB4, Tie2, and SRC (assay: 33PanQinase Activity Assay (protein kinase assay)). Conditions: on at least one kinase of the listed panel, or on at least two kinases from at least two different molecular mechanisms of tumor progression; 1 µM [γ-33P]-ATP, 30°C, 80 minutes.
Assay type: biochemical, human
Description: The effect of the benzazole derivatives was tested on recombinant, human protein kinases. All protein kinases were expressed in Sf9 insect cells as human recombinant GST-fusion proteins or as His-tagged proteins by means of the baculovirus expression system. Protein kinases were purified by affinity chromatography using either GSH-agarose or Ni-NTH-agarose. The purity and identity of each was checked by SDS-PAGE/silver staining and by western blot analysis with specific antibodies.
A proprietary protein kinase assay (^33PanQinase® Activity Assay) was used for measuring the kinase activity. All kinase assays were performed in 96-well FlashPlates™ in a 50 µl reaction volume. The assay for all enzymes contained 60 mM HEPES-NaOH, pH 7.5, 3 mM MgCl2, 3 mM MnCl2, 3 µM Na-orthovanadate, 1.2 mM DTT, 50 µg/ml PEG20000 and 1 µM [γ-^33P]-ATP (approx. 5x10^5 cpm per well). The reaction cocktails were incubated at 30°C for 80 minutes. The reaction was stopped with 50 µl of 2% (v/v) H3PO4, plates were aspirated and washed two times with 200 µl of 0.9% (w/v) NaCl. Incorporation of ^33Pi was determined with a microplate scintillation counter. All assays were performed with a BeckmanCoulter/ Sagian robotic system.

SMILES | IC50 [nM]
COc1cc2ncnc(Nc3nc4ccc(NC(=O)c5cccc(OC(F)(F)F)c5)cc4s3)c2cc1OC [Example 11, N-[2-(6,7-Dimethoxyquinazolin-4-ylamino)-benzothiazol-6-yl]-3-trifluoromethoxybenzamide] | < 500
COc1cc2ncnc(Nc3nc4ccc(NC(=O)Nc5ccccc5)cc4s3)c2cc1OC [Example 12, 1-[2-(6,7-Dimethoxyquinazolin-4-ylamino)benzothiazol-6-yl]-3-phenylurea] | < 500
COc1cc2ncnc(Nc3nc4ccc(NC(=O)Nc5cccc(F)c5)cc4s3)c2cc1OC [Example 14, 1-[2-(6,7-Dimethoxyquinazolin-4-ylamino)benzothiazol-6-yl]-3-(3-fluorophenyl)urea] | < 500

Second part, the compound after the results:

IC50 [nM] | SMILES
< 500 | COc1cc2ncnc(Nc3nc4ccc(NC(=O)Nc5cccc(C(F)(F)F)c5)cc4s3)c2cc1OC [Example 15, 1-[2-(6,7-Dimethoxyquinazolin-4-ylamino)benzothiazol-6-yl]-3-(3-trifluoromethylphenyl)urea]
< 500 | COc1cc2ncnc(Nc3nc4ccc(NC(=O)Nc5ccc(Cl)c(C(F)(F)F)c5)cc4s3)c2cc1OC [Example 18, 1-(4-Chloro-3-trifluoromethylphenyl)-3-[2-(6,7-dimethoxyquinazolin-4-yl-amino)benzothiazol-6-yl]urea]
< 500 | COc1cc2c(Nc3nc4ccc(NC(=O)Nc5ccc(Cl)c(C(F)(F)F)c5)cc4s3)ncnc2cc1OCCCN1CCN(C)CC1 [Example 19, 1-(4-Chloro-3-trifluoromethylphenyl)-3-(2-{6-methoxy-7-[3-(4-methylpiperazin-1-yl)-propoxy]quinazolin-4-ylamino}benzothiazol-6-yl)urea]
< 500 | COc1cc2ncnc(Nc3nc4cc(NC(=O)Nc5ccc(Cl)c(C(F)(F)F)c5)ccc4s3)c2cc1OC [Example 20, 1-(4-Chloro-3-trifluoromethylphenyl)-3-[2-(6,7-dimethoxyquinazolin-4-yl-amino)benzothiazol-5-yl]urea]
